Drawing on ChEMBL document CHEMBL1212818, “Polyamines inhibit carbonic anhydrases by anchoring to the zinc-coordinated water molecule” (J Med Chem, 2010), this text covers Ki for 14 compounds.

Bounds are passed on as bounds.

Experiment [1] concerns the target Carbonic anhydrase 12 (Homo sapiens, UniProt O43570).
For experiment [2], the target named is T1, Carbonic anhydrase 15 (Mus musculus, UniProt Q99N23).
T1 sequence (Q99N23 whole entry): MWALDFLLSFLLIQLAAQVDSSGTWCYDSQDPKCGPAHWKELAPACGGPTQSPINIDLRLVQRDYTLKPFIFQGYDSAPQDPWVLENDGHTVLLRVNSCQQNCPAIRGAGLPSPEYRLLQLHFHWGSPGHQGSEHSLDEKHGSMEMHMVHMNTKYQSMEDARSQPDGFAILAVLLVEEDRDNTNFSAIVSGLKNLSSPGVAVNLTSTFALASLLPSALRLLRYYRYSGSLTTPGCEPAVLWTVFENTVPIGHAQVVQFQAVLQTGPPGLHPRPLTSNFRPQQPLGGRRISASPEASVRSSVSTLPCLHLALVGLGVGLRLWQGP

The target of experiment [3] is Carbonic anhydrase 1 (Homo sapiens, UniProt P00915).
Carbonic anhydrase 1, sequence (P00915 whole entry): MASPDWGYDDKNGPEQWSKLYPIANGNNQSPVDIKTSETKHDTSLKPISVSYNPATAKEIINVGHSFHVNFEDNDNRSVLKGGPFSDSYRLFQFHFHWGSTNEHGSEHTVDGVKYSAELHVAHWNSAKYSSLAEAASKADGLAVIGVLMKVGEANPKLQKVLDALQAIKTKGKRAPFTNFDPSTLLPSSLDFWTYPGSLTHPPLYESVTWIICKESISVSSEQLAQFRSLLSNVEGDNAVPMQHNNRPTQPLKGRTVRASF
The target of experiment [4] is Carbonic anhydrase 2 (Homo sapiens, UniProt P00918).
For experiment [5], the target named is Carbonic anhydrase 3 (Homo sapiens, UniProt P07451).
Carbonic anhydrase 3, sequence (P07451 whole entry): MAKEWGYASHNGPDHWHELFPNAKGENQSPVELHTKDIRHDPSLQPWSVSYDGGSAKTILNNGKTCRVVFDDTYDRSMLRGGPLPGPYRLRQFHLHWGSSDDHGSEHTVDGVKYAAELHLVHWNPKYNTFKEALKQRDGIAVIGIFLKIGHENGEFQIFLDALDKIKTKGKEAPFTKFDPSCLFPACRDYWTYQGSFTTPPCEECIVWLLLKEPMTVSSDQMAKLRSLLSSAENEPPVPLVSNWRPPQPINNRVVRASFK
Experiment [6] concerns the target Carbonic anhydrase 4 (Homo sapiens, UniProt P22748).
Experiment [7] addresses Carbonic anhydrase 5A, mitochondrial (Homo sapiens, UniProt P35218).
In experiment [8] the target is Carbonic anhydrase 5B, mitochondrial (Homo sapiens, UniProt Q9Y2D0).
Carbonic anhydrase 5B, mitochondrial, sequence (Q9Y2D0 whole entry): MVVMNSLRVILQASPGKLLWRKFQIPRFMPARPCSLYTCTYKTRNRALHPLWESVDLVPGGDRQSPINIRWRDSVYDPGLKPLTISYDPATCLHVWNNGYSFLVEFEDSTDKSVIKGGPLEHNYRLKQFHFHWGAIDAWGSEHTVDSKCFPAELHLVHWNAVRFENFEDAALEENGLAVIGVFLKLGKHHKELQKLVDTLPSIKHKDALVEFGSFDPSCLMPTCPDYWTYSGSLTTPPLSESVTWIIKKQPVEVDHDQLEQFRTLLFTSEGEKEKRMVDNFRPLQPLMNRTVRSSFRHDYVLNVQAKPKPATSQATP
The target in experiment [9] is Carbonic anhydrase 6 (Homo sapiens, UniProt P23280).
Carbonic anhydrase 6, sequence (P23280 whole entry): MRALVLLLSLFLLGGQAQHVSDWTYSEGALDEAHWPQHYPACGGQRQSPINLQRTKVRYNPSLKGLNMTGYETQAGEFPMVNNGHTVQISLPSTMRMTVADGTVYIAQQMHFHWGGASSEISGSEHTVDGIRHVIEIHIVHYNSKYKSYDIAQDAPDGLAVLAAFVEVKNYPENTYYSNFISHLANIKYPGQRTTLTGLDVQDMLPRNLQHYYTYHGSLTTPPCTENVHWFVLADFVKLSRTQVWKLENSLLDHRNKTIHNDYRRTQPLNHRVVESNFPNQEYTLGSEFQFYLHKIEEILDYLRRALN
The target in experiment [10] is Carbonic anhydrase 7 (Homo sapiens, UniProt P43166).
Carbonic anhydrase 7, sequence (P43166 whole entry): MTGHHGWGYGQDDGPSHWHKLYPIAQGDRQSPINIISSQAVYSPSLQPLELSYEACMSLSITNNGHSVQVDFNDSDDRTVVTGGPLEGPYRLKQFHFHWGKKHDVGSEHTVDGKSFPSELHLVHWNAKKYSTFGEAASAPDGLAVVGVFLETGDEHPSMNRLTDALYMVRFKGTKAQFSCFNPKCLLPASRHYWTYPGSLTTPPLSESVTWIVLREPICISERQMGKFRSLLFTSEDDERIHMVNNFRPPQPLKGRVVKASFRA
In experiment [11] the target is Carbonic anhydrase 13 (Mus musculus, UniProt Q9D6N1).
Carbonic anhydrase 13, sequence (Q9D6N1 whole entry): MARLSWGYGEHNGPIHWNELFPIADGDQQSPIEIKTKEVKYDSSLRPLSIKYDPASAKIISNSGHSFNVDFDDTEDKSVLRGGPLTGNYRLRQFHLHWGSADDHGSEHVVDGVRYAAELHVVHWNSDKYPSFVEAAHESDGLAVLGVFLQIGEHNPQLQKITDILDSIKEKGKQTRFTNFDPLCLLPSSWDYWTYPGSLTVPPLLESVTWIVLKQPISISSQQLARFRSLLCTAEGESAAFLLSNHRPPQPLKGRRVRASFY
For experiment [12], the target named is Carbonic anhydrase 14 (Homo sapiens, UniProt Q9ULX7).
Carbonic anhydrase 14, sequence (Q9ULX7 whole entry): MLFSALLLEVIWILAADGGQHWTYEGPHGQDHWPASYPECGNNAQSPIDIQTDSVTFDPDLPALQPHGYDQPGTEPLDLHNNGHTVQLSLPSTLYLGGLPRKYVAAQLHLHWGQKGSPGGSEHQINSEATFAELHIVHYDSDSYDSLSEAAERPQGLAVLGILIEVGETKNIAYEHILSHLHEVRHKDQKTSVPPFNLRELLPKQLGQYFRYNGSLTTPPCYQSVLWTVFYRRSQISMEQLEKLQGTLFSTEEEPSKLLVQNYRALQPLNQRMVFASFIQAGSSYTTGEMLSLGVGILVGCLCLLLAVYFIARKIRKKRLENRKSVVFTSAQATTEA
The target of experiment [13] is Carbonic anhydrase 9 (Homo sapiens, UniProt Q16790).

Carbonic anhydrase 12, sequence (O43570 whole entry): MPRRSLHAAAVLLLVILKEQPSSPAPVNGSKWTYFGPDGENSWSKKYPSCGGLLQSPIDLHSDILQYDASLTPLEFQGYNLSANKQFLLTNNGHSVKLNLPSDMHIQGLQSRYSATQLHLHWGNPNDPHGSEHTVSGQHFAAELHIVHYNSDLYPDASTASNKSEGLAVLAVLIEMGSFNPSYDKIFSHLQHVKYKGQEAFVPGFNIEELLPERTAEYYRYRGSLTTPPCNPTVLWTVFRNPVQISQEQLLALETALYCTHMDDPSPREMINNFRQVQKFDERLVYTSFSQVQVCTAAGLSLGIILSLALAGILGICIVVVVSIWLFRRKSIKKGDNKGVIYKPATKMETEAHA
Carbonic anhydrase 4, sequence (P22748 whole entry): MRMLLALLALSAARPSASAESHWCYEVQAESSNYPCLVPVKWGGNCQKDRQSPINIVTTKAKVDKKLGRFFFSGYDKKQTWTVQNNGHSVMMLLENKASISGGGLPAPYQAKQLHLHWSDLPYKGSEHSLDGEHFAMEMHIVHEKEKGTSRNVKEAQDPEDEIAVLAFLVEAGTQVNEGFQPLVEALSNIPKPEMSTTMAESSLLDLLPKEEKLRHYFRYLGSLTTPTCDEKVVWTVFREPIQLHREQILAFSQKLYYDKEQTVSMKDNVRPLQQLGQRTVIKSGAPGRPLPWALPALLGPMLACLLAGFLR
Carbonic anhydrase 5A, mitochondrial, sequence (P35218 whole entry): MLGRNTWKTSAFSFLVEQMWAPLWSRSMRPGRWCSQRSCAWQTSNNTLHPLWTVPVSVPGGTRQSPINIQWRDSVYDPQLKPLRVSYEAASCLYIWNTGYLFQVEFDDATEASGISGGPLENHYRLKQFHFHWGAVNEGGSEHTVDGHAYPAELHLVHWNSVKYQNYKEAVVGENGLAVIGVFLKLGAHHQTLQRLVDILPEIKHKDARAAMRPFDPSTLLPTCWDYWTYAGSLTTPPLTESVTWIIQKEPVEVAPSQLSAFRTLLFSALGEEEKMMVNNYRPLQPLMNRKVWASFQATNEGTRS

With `NCCCCCN`, the Ki amounted to 0.45 µM in experiment [1]; 0.65 µM in experiment [2]; 13.3 µM in [3]; 11 µM in [4]; 0.5 µM in experiment [5]; 0.052 µM in [6]. The Ki stood at 0.044 µM in [7]; 0.54 µM in [8]; 0.74 µM in experiment [9]; 0.42 µM in experiment [10]; 0.63 µM in [11]; 0.5 µM in experiment [12].
As to `CC(C)(C)OC(=O)N(CCCCN(CCCNC(=O)C(F)(F)F)C(=O)OC(C)(C)C)CCCNC(=O)C(F)(F)F`, the Ki was 175 µM in [1]; > 500 µM in experiment [2]; > 500 µM in experiment [3]; 107 µM in experiment [4]; 112 µM in [5]; 104 µM in [6]. Moreover, the inhibition constant (Ki) in experiment [7] worked out at 125 µM; in experiment [8] it was 103 µM; in experiment [9], 104 µM; in experiment [10], 107 µM; in [11] it was 179 µM; in [12], 85 µM.
With `CN(C)CCN(C)CCN(C)CCN(C)C`, the Ki in experiment [13] is 0.31 µM; in experiment [1] it was 0.52 µM; in [2], 0.76 µM; in experiment [3] it was > 500 µM; in experiment [4], 11.2 µM; in experiment [5] it was 0.52 µM. The Ki in [6] came to 0.053 µM; in [7] it was 0.047 µM; in [8] it was 0.71 µM; in experiment [9], 0.78 µM; in [10] it was 0.73 µM; in experiment [11] it was 0.58 µM. Also, the affinity in experiment [12] corresponds to a Ki of 0.74 µM.
For `NCCNc1cccc2ccccc12`, the inhibition constant Ki in experiment [13] is 0.51 µM; in experiment [1], 0.38 µM; in [2] it was 0.57 µM; in [3], > 500 µM; in experiment [4], 103 µM; in [5] it was 0.42 µM. The inhibition constant Ki is 0.058 µM in experiment [6]; 0.048 µM in experiment [7]; 0.061 µM in experiment [8]; 0.64 µM in experiment [9]; 0.36 µM in [10]; 0.62 µM in [11]. In experiment [12], the Ki was determined as 0.59 µM.
As for `O=C(NCCCNCCCCNCCCNC(=O)C(F)(F)F)C(F)(F)F`, the Ki in [13] came out at 11.4 µM; in experiment [1], 10.2 µM; in experiment [2], 110 µM; in experiment [3] it was 136 µM; in experiment [4], 11.3 µM; in experiment [5], 11.5 µM. The Ki amounted to 0.116 µM in [6]; 1.26 µM in experiment [7]; 1.05 µM in experiment [8]; 1.1 µM in experiment [9]; 1.09 µM in experiment [10]; 12.6 µM in experiment [11]. In [12], this compound displayed a Ki of 6.7 µM.
Regarding `O=C(NCCNCCCNCCNC(=O)C(F)(F)F)C(F)(F)F`, the Ki amounted to 117 µM in [13]; 112 µM in [1]; 104 µM in experiment [2]; 122 µM in experiment [3]; 112 µM in [4]; 96 µM in experiment [5]. The Ki was found to be 108 µM in [6]; 62 µM in experiment [7]; 54 µM in [8]; 156 µM in experiment [9]; 108 µM in experiment [10]; 131 µM in experiment [11]. The compound further registered a Ki in [12] of 125 µM.
`CC(C)(C)OC(=O)N(CCCN(CCNC(=O)C(F)(F)F)C(=O)OC(C)(C)C)CCNC(=O)C(F)(F)F`: the inhibition constant (Ki) in [13], in experiment [1], in experiment [2], in experiment [3], in experiment [4] and in experiment [5] was > 500 µM each time. The Ki is 309 µM in experiment [6]; 416 µM in experiment [7]; 401 µM in [8]; > 500 µM in experiment [9]; > 500 µM in experiment [10]; > 500 µM in [11]. Besides, the Ki in experiment [12] is > 500 µM.
Consider `O=C(NCCNCCNCCNC(=O)C(F)(F)F)C(F)(F)F`, for which the inhibition constant (Ki) in [13], in [1], in experiment [2], in experiment [3], in [4] and in experiment [5] was > 500 µM in each case. The Ki in [6], in experiment [7], in experiment [8], in [9], in experiment [10] and in [11] was > 500 µM each time. In addition, the Ki in experiment [12] is > 500 µM.
For the compound `CC(C)(C)OC(=O)N(CCNC(=O)C(F)(F)F)CCN(CCNC(=O)C(F)(F)F)C(=O)OC(C)(C)C`, the Ki in experiment [13], in [1], in experiment [2], in [3], in [4] and in experiment [5] was > 500 µM throughout. For the same compound, the Ki in experiment [6], in [7], in experiment [8], in experiment [9], in [10] and in experiment [11] was > 500 µM each time. The Ki in [12] was > 500 µM.
For the compound `CC(C)(C)OC(=O)N(CCCN)CCCCN(CCCN)C(=O)OC(C)(C)C`, the inhibition constant (Ki) in [13] is 144 µM; in [1], 165 µM; in experiment [2], 236 µM; in experiment [3], 137 µM; in experiment [4] it was 110 µM; in [5], 132 µM. Moreover, the Ki in experiment [6] came out at 103 µM; in experiment [7], 131 µM; in experiment [8], 107 µM; in [9], 114 µM; in experiment [10] it was 108 µM; in [11], 136 µM. In experiment [12], this compound returned an inhibition constant (Ki) of 115 µM.
As to `NCCCCCCN`, the Ki in experiment [13] worked out at 0.41 µM; in experiment [1] it was 0.37 µM; in experiment [2], 0.66 µM; in experiment [3], 12.6 µM; in [4], 34.4 µM; in experiment [5], 0.6 µM. The Ki in experiment [6] was 0.45 µM; in [7] it was 0.61 µM; in [8] it was 0.58 µM; in experiment [9], 0.72 µM; in [10], 0.44 µM; in experiment [11], 0.69 µM. This compound also came in with a Ki in experiment [12] of 0.64 µM.
On to `NCCNCCN`, for which the Ki was determined as 10.6 µM in experiment [13]; 11.4 µM in experiment [1]; 105 µM in experiment [2]; 415 µM in experiment [3]; 118 µM in [4]; 117 µM in [5]. The inhibition constant Ki is 116 µM in experiment [6]; 110 µM in experiment [7]; 11 µM in experiment [8]; 11.5 µM in [9]; 12.1 µM in [10]; 11.5 µM in [11]. In experiment [12], this compound showed a Ki of 10.1 µM.
With `Oc1ccccc1` [PHENOL], the Ki in experiment [8], in experiment [10] and in experiment [11] was > 500 µM each time.
For the compound `NCCCNCCCCNCCCN` [SPERMINE], the Ki was 13.3 µM in [13]; 27.6 µM in experiment [1]; 74 µM in experiment [2]; 231 µM in experiment [3]; 167 µM in experiment [5]; 0.84 µM in [7]. Moreover, the Ki in [8] was 0.83 µM; in [9] it was 0.99 µM; in [10], 0.71 µM; in experiment [11], 22.6 µM; in [12] it was 0.86 µM.
